The values that follow come from ChEMBL document CHEMBL1122359, “Improved delivery through biological membranes. 13. Brain-specific delivery of dopamine with a dihydropyridine in equilibrium with pyridinium salt type redox delivery system” (1983).

Common to all, as to assay type: functional
The species named for experiment [1] is Rattus norvegicus. Description: Percent decrease in serum prolactin concentration in male rats.
The species named for experiment [2] is Rattus norvegicus. Description: In vitro Inhibitory activity against prolactin release in anterior pituitary from adult female rats(Charles Rivers Labs) at a concentration of 2*10e-8M.
For experiment [3], the species on record is Rattus norvegicus. As to the kind of experiment: In vitro Inhibitory activity against prolactin release in anterior pituitary from adult female rats(Charles Rivers Labs), at a concentration of 2*10e-7M.
The test system of experiment [4] is Rattus norvegicus. As to the kind of experiment: In vitro Weight change in anterior pituitary after the administration of the compound.

In turn, `CN1C=CCC(C(=O)NCCc2ccc(OC(=O)C(C)(C)C)c(OC(=O)C(C)(C)C)c2)=C1` came in with a Decrease in the experiment listed under Rattus norvegicus [1] of 79%.

Compound `NCCc1ccc(O)c(O)c1` [DOPAMINE] registered a Prolactin release rate in the experiment filed under Rattus norvegicus [2] of 355 ng/mg/h.

Compound `C[n+]1cccc(C(=O)NCCc2ccc(O)c(O)c2)c1.[I-]` displayed a Decrease in the experiment filed under Rattus norvegicus [1] of 67%. For the same compound, the Prolactin release rate in the experiment listed under Rattus norvegicus [2] was 386 ng/mg/h; in the experiment listed under Rattus norvegicus [3] it was 277 ng/mg/h. For the same compound, in the experiment on Rattus norvegicus [4], the “Weight change of AP-S” value was determined as 4.7 mg.
